# Test results: ChEMBL document CHEMBL3885861, “Open TG-GATES”
# Organism: Rattus norvegicus
# Test: Open TG-GATES - Regimen: Daily Repeat
# Type: toxicity, organism-based, Sprague-Dawley
# Parameters: regimen Daily Repeat, gender Male, age 6 weeks
# Details: in vivo, po, 100 mg/kg, route gavage, dose level Low; for APTT / Bas / Eos / Fbg / Hb / Ht / Lym / MCH / MCHC / MCV / Mono / Neu / PT / Plat / RBC / Ret / WBC: tissue Blood; for KIDNEY_L / KIDNEY_R / KIDNEY_TOTAL: tissue Kidney; for LIVER: tissue Liver; for A/G / ALP / ALT / AST / BUN / CRE / Ca / Cl / DBIL / GLC / IP / K / LDH / Na / PL / RALB / TBIL / TC / TG / TP / gamma-GTP: tissue Plasma
smiles,measurement,setting,value
CCOC(=O)CCC(=O)O[C@H]1[C@H](O[C@@H]2[C@@H](C)[C@H](O[C@H]3C[C@@](C)(OC)[C@@H](O)[C@H](C)O3)[C@@H](C)C(=O)O[C@H](CC)[C@@](C)(O)[C@H](O)[C@@H](C)C(=O)[C@H](C)C[C@@]2(C)O)O[C@H](C)C[C@@H]1N(C)C [ERYTHROMYCIN ETHYLSUCCINATE],TERMINAL_BW,"72 h, time 3 day",235.5 g
same,APTT,"72 h, time 3 day",21.4 s
same,Bas,"72 h, time 3 day",0%
same,Eos,"72 h, time 3 day",1%
same,Fbg,"72 h, time 3 day",324.6 mg/dL
same,Hb,"72 h, time 3 day",13.4 g/dL
same,Ht,"72 h, time 3 day",39.4%
same,Lym,"72 h, time 3 day",83.4%
same,MCH,"72 h, time 3 day",20.7 pg
same,MCHC,"72 h, time 3 day",33.9%
same,MCV,"72 h, time 3 day",61.1 fL
same,Mono,"72 h, time 3 day",3%
same,Neu,"72 h, time 3 day",11.6%
same,PT,"72 h, time 3 day",15.9 s
same,Plat,"72 h, time 3 day",120.2 x10_4/uL
same,RBC,"72 h, time 3 day",645.4 x10_4/ul
same,Ret,"72 h, time 3 day",4.9%
same,WBC,"72 h, time 3 day",101.8 x10_2/uL
same,KIDNEY_L,"72 h, time 3 day",1 g
same,KIDNEY_R,"72 h, time 3 day",1 g
same,KIDNEY_TOTAL,"72 h, time 3 day",2 g
same,LIVER,"72 h, time 3 day",10.5 g
same,A/G,"72 h, time 3 day",1.2
same,ALP,"72 h, time 3 day",1729.8 IU/L
same,ALT,"72 h, time 3 day",44.4 IU/L
same,AST,"72 h, time 3 day",77.2 IU/L
same,BUN,"72 h, time 3 day",18 mg/dL
same,CRE,"72 h, time 3 day",0.1 mg/dL
same,Ca,"72 h, time 3 day",10.3 mg/dL
same,Cl,"72 h, time 3 day",107.2 meq/L
same,DBIL,"72 h, time 3 day",0 mg/dL
same,GLC,"72 h, time 3 day",187.2 mg/dL
same,IP,"72 h, time 3 day",7.1 mg/dL
same,K,"72 h, time 3 day",4.4 meq/L
same,LDH,"72 h, time 3 day",179.8 IU/L
same,Na,"72 h, time 3 day",141.4 meq/L
same,PL,"72 h, time 3 day",130 mg/dL
same,RALB,"72 h, time 3 day",3 g/dL
same,TBIL,"72 h, time 3 day",0.024 mg/dL
same,TC,"72 h, time 3 day",69.2 mg/dL
same,TG,"72 h, time 3 day",72.2 mg/dL
same,TP,"72 h, time 3 day",5.5 g/dL
same,gamma-GTP,"72 h, time 3 day",1.2 IU/L
same,TERMINAL_BW,"[…], time 7 day",255.3 g
same,TERMINAL_BW,"[…], time 14 day",320.9 g
same,TERMINAL_BW,"[…], time 28 day",401.9 g
same,APTT,"[…], time 7 day",21.7 s
same,Bas,"[…], time 7 day",0%
same,Eos,"[…], time 7 day",0.8%
same,Fbg,"[…], time 7 day",311.8 mg/dL
same,Hb,"[…], time 7 day",13.6 g/dL
same,Ht,"[…], time 7 day",40%
same,Lym,"[…], time 7 day",84.6%
same,MCH,"[…], time 7 day",20.4 pg
same,MCHC,"[…], time 7 day",33.9%
same,MCV,"[…], time 7 day",60.1 fL
same,Mono,"[…], time 7 day",2.2%
same,Neu,"[…], time 7 day",11.4%
same,PT,"[…], time 7 day",16.8 s
same,Plat,"[…], time 7 day",107.9 x10_4/uL
same,RBC,"[…], time 7 day",667.2 x10_4/ul
same,Ret,"[…], time 7 day",5.3%
same,WBC,"[…], time 7 day",77.9 x10_2/uL
same,APTT,"[…], time 14 day",20.2 s
same,Bas,"[…], time 14 day",0%
same,Eos,"[…], time 14 day",1.2%
same,Fbg,"[…], time 14 day",338 mg/dL
same,Hb,"[…], time 14 day",13.8 g/dL
same,Ht,"[…], time 14 day",39.8%
same,Lym,"[…], time 14 day",82%
same,MCH,"[…], time 14 day",20.6 pg
same,MCHC,"[…], time 14 day",34.9%
same,MCV,"[…], time 14 day",59.1 fL
same,Mono,"[…], time 14 day",2.2%
same,Neu,"[…], time 14 day",13.8%
same,PT,"[…], time 14 day",16.3 s
same,Plat,"[…], time 14 day",113.3 x10_4/uL
same,RBC,"[…], time 14 day",673.2 x10_4/ul
same,Ret,"[…], time 14 day",4.7%
same,WBC,"[…], time 14 day",110.5 x10_2/uL
same,APTT,"[…], time 28 day",23.6 s
same,Bas,"[…], time 28 day",0%
same,Eos,"[…], time 28 day",1.2%
same,Fbg,"[…], time 28 day",339 mg/dL
same,Hb,"[…], time 28 day",15.1 g/dL
same,Ht,"[…], time 28 day",43.9%
same,Lym,"[…], time 28 day",86%
same,MCH,"[…], time 28 day",19.6 pg
same,MCHC,"[…], time 28 day",34.5%
same,MCV,"[…], time 28 day",56.8 fL
same,Mono,"[…], time 28 day",2%
same,Neu,"[…], time 28 day",9.4%
same,PT,"[…], time 28 day",16 s
same,Plat,"[…], time 28 day",107.2 x10_4/uL
same,RBC,"[…], time 28 day",772.2 x10_4/ul
same,Ret,"[…], time 28 day",2.7%
same,WBC,"[…], time 28 day",102.2 x10_2/uL
same,KIDNEY_L,"[…], time 7 day",1.1 g
same,KIDNEY_R,"[…], time 7 day",1.1 g
same,KIDNEY_TOTAL,"[…], time 7 day",2.2 g
same,KIDNEY_L,"[…], time 14 day",1.2 g
same,KIDNEY_R,"[…], time 14 day",1.3 g
same,KIDNEY_TOTAL,"[…], time 14 day",2.5 g
same,KIDNEY_L,"[…], time 28 day",1.4 g
same,KIDNEY_R,"[…], time 28 day",1.4 g
same,KIDNEY_TOTAL,"[…], time 28 day",2.9 g
same,LIVER,"[…], time 7 day",11.1 g
same,LIVER,"[…], time 14 day",13.3 g
same,LIVER,"[…], time 28 day",16.2 g
same,A/G,"[…], time 7 day",1.1
same,ALP,"[…], time 7 day",1592.6 IU/L
same,ALT,"[…], time 7 day",36.4 IU/L
same,AST,"[…], time 7 day",64.6 IU/L
same,BUN,"[…], time 7 day",18.4 mg/dL
same,CRE,"[…], time 7 day",0.2 mg/dL
same,Ca,"[…], time 7 day",10.5 mg/dL
same,Cl,"[…], time 7 day",108.2 meq/L
same,DBIL,"[…], time 7 day",0 mg/dL
same,GLC,"[…], time 7 day",194.2 mg/dL
same,IP,"[…], time 7 day",7 mg/dL
same,K,"[…], time 7 day",4.2 meq/L
same,LDH,"[…], time 7 day",129 IU/L
same,Na,"[…], time 7 day",141.2 meq/L
same,PL,"[…], time 7 day",135.8 mg/dL
same,RALB,"[…], time 7 day",2.9 g/dL
same,TBIL,"[…], time 7 day",0 mg/dL
same,TC,"[…], time 7 day",68.6 mg/dL
same,TG,"[…], time 7 day",111.4 mg/dL
same,TP,"[…], time 7 day",5.5 g/dL
same,gamma-GTP,"[…], time 7 day",1.6 IU/L
same,A/G,"[…], time 14 day",1.2
same,ALP,"[…], time 14 day",1442.8 IU/L
same,ALT,"[…], time 14 day",36.8 IU/L
same,AST,"[…], time 14 day",66 IU/L
same,BUN,"[…], time 14 day",20.2 mg/dL
same,CRE,"[…], time 14 day",0.2 mg/dL
same,Ca,"[…], time 14 day",10.7 mg/dL
same,Cl,"[…], time 14 day",107.2 meq/L
same,DBIL,"[…], time 14 day",0 mg/dL
same,GLC,"[…], time 14 day",196.8 mg/dL
same,IP,"[…], time 14 day",6.8 mg/dL
same,K,"[…], time 14 day",4.4 meq/L
same,LDH,"[…], time 14 day",150 IU/L
same,Na,"[…], time 14 day",142.2 meq/L
same,PL,"[…], time 14 day",150.2 mg/dL
same,RALB,"[…], time 14 day",3.1 g/dL
same,TBIL,"[…], time 14 day",0.005 mg/dL
same,TC,"[…], time 14 day",79 mg/dL
same,TG,"[…], time 14 day",102 mg/dL
same,TP,"[…], time 14 day",5.7 g/dL
same,gamma-GTP,"[…], time 14 day",2.2 IU/L
same,A/G,"[…], time 28 day",1.2
same,ALP,"[…], time 28 day",1003.2 IU/L
same,ALT,"[…], time 28 day",37.8 IU/L
same,AST,"[…], time 28 day",59.2 IU/L
same,BUN,"[…], time 28 day",19.2 mg/dL
same,CRE,"[…], time 28 day",0.2 mg/dL
same,Ca,"[…], time 28 day",10.3 mg/dL
same,Cl,"[…], time 28 day",106.4 meq/L
same,DBIL,"[…], time 28 day",0 mg/dL
same,GLC,"[…], time 28 day",194.4 mg/dL
same,IP,"[…], time 28 day",6.9 mg/dL
same,K,"[…], time 28 day",4.1 meq/L
same,LDH,"[…], time 28 day",114 IU/L
same,Na,"[…], time 28 day",141.8 meq/L
same,PL,"[…], time 28 day",152 mg/dL
same,RALB,"[…], time 28 day",3.1 g/dL
same,TBIL,"[…], time 28 day",0.006 mg/dL
same,TC,"[…], time 28 day",78.8 mg/dL
same,TG,"[…], time 28 day",127.4 mg/dL
same,TP,"[…], time 28 day",5.9 g/dL
same,gamma-GTP,"[…], time 28 day",2.2 IU/L
